Test results reported in ChEMBL document CHEMBL1129689, “Unsaturated side chain beta-11-hydroxyhexahydrocannabinol analogs” (J Med Chem, 1996).

Legend:
Cannabinoid receptor 2 = Cannabinoid receptor 2 (Mus musculus, UniProt P47936); test: Compound was evaluated for its ability to displace specifically bound [3H]CP-55940 from a Cannabinoid receptor 2 enriched mouse spleen preparation.; type: tissue-based
Cannabinoid receptor 1 = Cannabinoid receptor 1 (Rattus norvegicus, UniProt P20272); test: Compound was evaluated for its ability to displace specifically bound [3H]CP-55940 from a Cannabinoid receptor 1 enriched rat brain microsome preparation.
Sequence of Cannabinoid receptor 1 (P20272 whole entry): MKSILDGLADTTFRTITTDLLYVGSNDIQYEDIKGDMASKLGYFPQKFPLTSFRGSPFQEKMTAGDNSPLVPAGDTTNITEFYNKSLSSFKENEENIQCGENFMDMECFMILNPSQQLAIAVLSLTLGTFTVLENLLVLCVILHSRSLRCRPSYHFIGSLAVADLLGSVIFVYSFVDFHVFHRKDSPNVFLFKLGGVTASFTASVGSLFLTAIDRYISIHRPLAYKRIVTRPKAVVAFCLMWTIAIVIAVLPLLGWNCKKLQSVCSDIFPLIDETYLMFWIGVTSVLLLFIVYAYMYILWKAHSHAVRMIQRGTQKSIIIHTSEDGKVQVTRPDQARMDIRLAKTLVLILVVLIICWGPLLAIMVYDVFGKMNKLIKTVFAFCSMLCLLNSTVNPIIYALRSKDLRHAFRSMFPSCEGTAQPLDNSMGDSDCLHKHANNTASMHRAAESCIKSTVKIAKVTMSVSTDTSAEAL

Sequence of Cannabinoid receptor 2 (P47936 whole entry): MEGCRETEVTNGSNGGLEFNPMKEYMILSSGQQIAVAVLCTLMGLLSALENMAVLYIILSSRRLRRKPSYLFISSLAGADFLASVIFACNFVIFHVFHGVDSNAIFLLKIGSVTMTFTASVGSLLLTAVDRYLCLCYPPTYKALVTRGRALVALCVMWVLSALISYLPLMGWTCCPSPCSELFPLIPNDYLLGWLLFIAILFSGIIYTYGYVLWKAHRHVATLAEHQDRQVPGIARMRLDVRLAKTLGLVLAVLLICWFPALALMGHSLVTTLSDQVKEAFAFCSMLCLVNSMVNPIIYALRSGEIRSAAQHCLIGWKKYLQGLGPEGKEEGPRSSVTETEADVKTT

Row | Compound | Ki (Cannabinoid receptor 2) | Ki (Cannabinoid receptor 1)
1 | CCCCC/C=C/c1cc(O)c2c(c1)OC(C)(C)[C@@H]1CC[C@@H](CO)C[C@@H]21 | 5.3 nM | 1.2 nM
2 | CCCCC/C=C\c1cc(O)c2c(c1)OC(C)(C)[C@@H]1CC[C@@H](CO)C[C@@H]21 | 9.5 nM | 0.8 nM
3 | CCCCCC#Cc1cc(O)c2c(c1)OC(C)(C)[C@@H]1CC[C@@H](CO)C[C@@H]21 | 61.6 nM | 5.8 nM
4 | CCCCCCCc1cc(O)c2c(c1)OC(C)(C)[C@@H]1CC[C@@H](CO)C[C@@H]21 | 14.3 nM | –
